From PMC7822874, “Chemoprotective antimalarials identified through quantitative high-throughput screening of Plasmodium blood and liver stage parasites” (Scientific Reports, 2021)
Read-outs that look alike come from different tables or passages of the source.

Columns and labels:
[1] = tested on: Plasmodium falciparum Dd2 asexual blood stage parasites; assay: microbe, parasite or virus in culture; set-up: species or system Plasmodium falciparum Dd2 in human erythrocytes; single determination (one 11-point concentration-response curve); conditions: Plasmodium falciparum, DD2, Erythrocyte, 72 h; read-out: AC50
in vitro [2] = conditions: human, HepG2-A16-CD81EGFP cells, uninfected
in vitro [3] = conditions: human, n = 1
[4] = tested on: P. berghei-ANKA-GFP-LucCON liver stage parasites in HepG2-A16-CD81EGFP cells; assay: P. berghei liver stage Pb-Luc assay, Method 1 (UCSD, 1536-well); assay type: cell-based, Plasmodium berghei; conditions: for activity at 1 µM / activity at 3 µM: 48 h, average of 2 wells on a 1536 well plate; for activity at 1 µM: 1 uM (compounds provided at 10 mM); for activity at 3 µM: 3 uM (compounds provided at 10 mM); for Max Resp (signal direction of the dose response): Decrease = decreasing P. berghei viability with dose, Increase = increasing signal, Inactive = no dose response
[5] = Plasmodium berghei, column 11, read-out: Pb-Luc (P. berghei liver stage), % of control, lower concentration, first repeat
[6] = Plasmodium berghei, column 12, read-out: Pb-Luc (P. berghei liver stage), % of control, lower concentration, second repeat
[7] = Plasmodium berghei, column 8, read-out: Pb-Luc (P. berghei liver stage), % of control, higher concentration, first repeat
[8] = Plasmodium berghei, column 9, read-out: Pb-Luc (P. berghei liver stage), % of control, higher concentration, second repeat
[9] = Plasmodium berghei, Method 1, Hill fit, 50% of maximum activity response, read-out: AC50
[10] = Plasmodium berghei, Method 1, log10 of molar AC50 from Hill fit, read-out: Log AC50 (converted)

SMILES | AC50 [1] | viability at 48 h, 1 µM (in vitro [2]) | viability at 48 h, 3 µM (in vitro [2]) | CC50 at 48 h (in vitro [3]; HepG2 cells) | also measured
O=C(NCCNc1ccnc2cc(Cl)ccc12)c1ccccc1F [MLS001163130-01] | 1.68 µM | 106% | 86% | 27.3 µM | 
c1ccc(CNc2nc(-c3ccccn3)nc3ccccc23)cc1 [MLS001165148-01] | 5.31 µM | 93% | 87% | 10.9 µM | 
CCCN(CCC)c1nc(-c2ccccn2)nc2ccccc12 [MLS001165172-01] | 5.31 µM | 112% | 90% | 9.68 µM | activity at 1 µM [4, 5]: 92%; activity at 1 µM [4, 6]: 102%; activity at 3 µM [4, 7]: 8%; activity at 3 µM [4, 8]: 7%
O=C1c2ccccc2C(=O)c2[nH]c(=O)[nH]c21 [MLS001173438-01] | 5.96 µM |  |  | 10.9 µM | Max Resp (signal direction of the dose response) ([4]; Method 1): Decrease; AC50 [4, 9]: 1.58 µM; AC50 [4, 10]: 1.58 µM; viability at 66 h (in vitro [2]): 95.7%
O=C1c2cc(F)ccc2-n2c1nc1ccccc1c2=O [MLS001216278-01] | 0.119 µM |  |  | 12.2 µM | Max Resp (signal direction of the dose response) ([4]; Method 1): Decrease; AC50 ([4]; Method 1, Hill fit, 50% of maximum activity response, read-out: AC50): 0.004 µM; Log AC50 (M) ([4]; Method 1, log10 of molar AC50 from Hill fit): -8.400 M; AC50 [4, 9]: 0.00355 µM; AC50 [4, 10]: 0.00355 µM; viability at 66 h (in vitro [2]): 95.7%
CN(C)CCCn1cnc2c(c1=N)C(c1ccccc1)c1ccc3ccccc3c1O2 (centres unmarked) [MLS001216375-01] | 3.76 µM | 111% | 110% | 30.6 µM | 
CCN1CCN(c2ccc(Nc3ccnc4ccccc34)cc2)CC1 [MLS001360577-01] | 1.06 µM | 95% | 91% | 17.2 µM | 
O=C(Nc1nc(-c2ccccn2)cs1)c1cccc(S(=O)(=O)N2CCOCC2)c1 [MLS002161290-01] | 5.96 µM | 98% | 60% | 9.68 µM | activity at 1 µM [4, 5]: 17%; activity at 1 µM [4, 6]: 16%; activity at 3 µM [4, 7]: 7%; activity at 3 µM [4, 8]: 7%
C/C(=N\NC(=O)c1ccccc1OCc1ccc(F)cc1)c1ccccn1 [MLS002162875-01] | 4.73 µM | 105% | 79% | 17.2 µM | 
O=S(=O)(Nc1cc2nc3ccccc3nc2n1Cc1ccccc1)c1ccc(Cl)cc1 [MLS002583111-01] | 1.19 µM |  |  | 19.3 µM | viability at 66 h (in vitro [2]): 103%
Cc1cc(Nc2sc(C(=O)c3ccc(F)cc3)c(N)c2C(=O)Nc2ccc(F)cc2)ccc1Cl [NCGC00138324-01] | 0.75 µM |  |  | 2.73 µM | 
COc1ccc(Nc2cc(O)c3ncccc3c2)cc1 [NCGC00183797-01] | 0.75 µM | 89% | 73% | 19.3 µM | 
Oc1cc(Nc2ccc(N3CCCCC3)cc2)cc2cccnc12 [NCGC00183804-01] | 0.841 µM | 105% | 94% | 17.2 µM | 
COc1ccc2[nH]c(C[C@@H]3C[C@@H](C(C)C)[C@H](CNCc4ccccn4)C=C3C)nc2c1 [NCGC00391900-01] | 0.769 µM |  |  | 7.03 µM | 
COc1ccccc1CNC[C@@H]1C=C(C)[C@H](Cc2nc3cccc(C)c3[nH]2)C[C@H]1C(C)C [NCGC00392078-01] | 9.68 µM |  |  | 44.4 µM | 
COc1ccccc1N1CCN(C[C@@H]2C=C(C)[C@H](Cc3nnc(-c4cncn4C)o3)C[C@H]2C(C)C)CC1 [NCGC00392622-01] | 10.6 µM |  |  | 24.3 µM | 
Cc1nn(-c2ccc(C(C)C)cc2)c(C)c1[C@@H]1C=C[C@@H](NCc2ccccc2)C1 [NCGC00392636-01] | 21.7 µM |  |  | 44.4 µM | 
c1csc(-c2ccnc(N[C@H]3CO[C@H]4[C@@H]3OC[C@@H]4NCC3CCCCC3)n2)c1 [NCGC00395181-01] | 12.2 µM |  |  | 49.8 µM | 
CN(C)CCNC(=O)c1nc2nc(-c3ccccc3)c(-c3cccc(F)c3)cc2n1C [NCGC00417874-01] | 19.3 µM |  |  | 31.4 µM | 
O=C1NC2(CCCN(Cc3ccccn3)C2)COc2ccccc21 (centres unmarked) [NCGC00477540-01] | 4.85 µM |  |  |  | CC50 at 48 h (in vitro [3]; hepg2): 3.14 µM
